# Assay results as given in the Kinase Knowledgebase extract (Sharma et al. 2016).
# Molecular target: PIK3CA (human) (UniProt P42336)
# Assay: Assessment of PIK3CA Kinase Activity
# Sequence of PIK3CA (human) (P42336 whole entry, looked up): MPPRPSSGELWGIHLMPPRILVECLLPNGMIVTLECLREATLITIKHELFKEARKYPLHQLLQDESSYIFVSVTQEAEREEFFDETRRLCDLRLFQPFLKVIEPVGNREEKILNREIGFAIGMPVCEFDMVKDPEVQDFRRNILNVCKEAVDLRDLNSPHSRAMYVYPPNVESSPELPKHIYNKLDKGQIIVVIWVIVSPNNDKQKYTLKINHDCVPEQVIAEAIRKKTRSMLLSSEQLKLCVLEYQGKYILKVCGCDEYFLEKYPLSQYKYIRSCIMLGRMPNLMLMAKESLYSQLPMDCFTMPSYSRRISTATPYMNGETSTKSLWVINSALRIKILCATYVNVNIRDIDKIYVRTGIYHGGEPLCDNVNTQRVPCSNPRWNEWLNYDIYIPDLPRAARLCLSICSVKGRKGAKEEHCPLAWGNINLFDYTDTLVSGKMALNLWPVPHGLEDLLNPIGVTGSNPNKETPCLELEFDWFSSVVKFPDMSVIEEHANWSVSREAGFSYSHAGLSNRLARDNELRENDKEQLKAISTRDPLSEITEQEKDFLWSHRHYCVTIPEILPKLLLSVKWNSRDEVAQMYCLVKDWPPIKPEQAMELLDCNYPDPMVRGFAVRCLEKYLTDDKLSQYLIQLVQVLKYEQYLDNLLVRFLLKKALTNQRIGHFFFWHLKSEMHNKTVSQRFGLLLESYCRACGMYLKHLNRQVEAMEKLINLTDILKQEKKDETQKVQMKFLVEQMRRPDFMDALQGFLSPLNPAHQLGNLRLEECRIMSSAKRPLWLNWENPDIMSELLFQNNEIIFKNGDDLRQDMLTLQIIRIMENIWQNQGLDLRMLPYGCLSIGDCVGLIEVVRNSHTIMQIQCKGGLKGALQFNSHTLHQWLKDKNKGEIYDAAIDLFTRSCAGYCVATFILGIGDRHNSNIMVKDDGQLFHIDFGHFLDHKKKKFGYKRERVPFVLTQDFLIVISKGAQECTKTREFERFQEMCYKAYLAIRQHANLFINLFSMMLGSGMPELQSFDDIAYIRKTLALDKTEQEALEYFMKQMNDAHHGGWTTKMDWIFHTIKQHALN
row,Structure (SMILES),IC50 [nM]
1,CC(=O)Nc1nc2ccc(-c3cnc4cc[nH]c4c3)nc2s1,< 100
2,CC(=O)Nc1nc2ccc(-c3ccc4[nH]ccc4c3)nc2s1,100 to 1000
3,CC(=O)Nc1nc2ccc(-c3ccccc3N)nc2s1,100 to 1000
4,CONC(=O)c1ccc(-c2ccc3nc(NC(C)=O)sc3n2)cc1,< 100
5,CC(=O)Nc1nc2ccc(-c3ccncc3)nc2s1,100 to 1000
6,CC(=O)Nc1ccc(-c2ccc3nc(NC(C)=O)sc3n2)cc1,100 to 1000
7,CC(=O)Nc1nc2ccc(-c3ccc4c(c3)CC(=O)N4)nc2s1,< 100
8,CC(=O)Nc1nc2cnc(-c3ccc(N)nc3)nc2s1,100 to 1000
9,CNC(=O)c1ccc(-c2ccc3nc(NC(C)=O)sc3n2)cc1,< 100
10,CC(=O)Nc1nc2ccc(-c3ccc4[nH]ccc4c3)cc2s1,100 to 1000
11,CC(=O)Nc1nc2ccc(-c3ccc4[nH]ncc4c3)nc2s1,< 100
12,CC(=O)Nc1ccc(-c2ccc3nc(NC(C)=O)sc3n2)cn1,100 to 1000
13,CS(=O)(=O)Nc1cc(-c2ccc3nc(NC(=O)C4CC4)sc3n2)cnc1Cl,< 100
14,CC(=O)Nc1nc2ccc(-c3cnc(Cl)c(NS(C)(=O)=O)c3)nc2s1,< 100
15,CNC(=O)c1cccc(-c2ccc3nc(NC(C)=O)sc3c2)c1,100 to 1000
16,CNC(=O)c1ccc(-c2ccc3nc(NC(C)=O)sc3n2)cn1,< 100

row,Structure (SMILES),IC50 [nM]
1,CC(=O)Nc1nc2ccc(-c3ccc(N)cc3)cc2s1,100 to 1000
2,CC(=O)Nc1nc2ccc(-c3cnc(Cl)c(NS(C)(=O)=O)c3)cc2s1,< 100
3,CC(=O)Nc1nc2ccc(-c3ccc(-c4nnc[nH]4)cc3)nc2s1,< 100
4,CC(=O)Nc1nc2ccc(-c3cnc(Cl)c(NS(=O)(=O)c4ccccc4)c3)nc2s1,< 100
5,CCS(=O)(=O)Nc1cc(-c2ccc3nc(NC(C)=O)sc3n2)cnc1Cl,< 100
6,CC(=O)Nc1nc2ccc(-c3cnc(Cl)c(NS(=O)(=O)C4CC4)c3)nc2s1,100 to 1000
7,CC(=O)Nc1nc2ccc(-c3ccc4[nH]cc(C(N)=O)c4c3)cc2s1,100 to 1000
8,CC(=O)Nc1nc2ccc(-c3cnc4[nH]ccc4c3)nc2s1,< 100
9,CONC(=O)c1cccc(-c2ccc3nc(NC(C)=O)sc3n2)c1,< 100
10,CC(=O)Nc1nc2ccc(-c3cnc(N)cn3)cc2s1,< 100
11,CC(=O)Nc1nc2cnc(-c3cnc(Cl)c(N)c3)nc2s1,100 to 1000
12,CC(=O)Nc1nc2ccc(-c3ccc(C#N)nc3)nc2s1,100 to 1000
13,CC(=O)Nc1nc2ccc(-c3ccc4nccn4c3)nc2s1,< 100
14,CC(=O)Nc1nc2cnc(-c3cnc(N)c(C(F)(F)F)c3)nc2s1,< 100
15,CC(=O)Nc1nc2cnc(-c3cnc(Cl)c(NS(C)(=O)=O)c3)nc2s1,< 100
16,CC(=O)Nc1nc2ccc(-c3ccc4[nH]cc(C=O)c4c3)cc2s1,< 100
